Consider 3 compounds from patent US6107489A, “Extended lifetimes in vivo renin inhibitors” (ConjuChem, Inc., priority 1999, dated 2000).

For orientation: IC50 means the concentration that gives 50% inhibition.

Read-outs that look alike come from different tables or passages of the source.

For data set [1], the system named is renin. Format: in vivo, rabbit. Particulars: for Corrected % Inhibition: normalized for dilution. How it is done: Materials and Methods: The following procedures were done under sterile conditions. Rabbit plasma was obtained from freshly drawn heparinized blood. One 8 mL aliquot of plasma was incubated with 5 micromoles of YS-004-69 (15) (the NHS ester; "NHS-RI") for 60 minutes at room temperature. Another equal aliquot was similarly incubated with 5 micromoles of YS-004-65 (free acid; "Free RI"). The reaction mixtures were stored at 4° C. overnight. Aliquots of these samples were saved for analysis of total renin inhibitor content by a standard renin radioimmunoassay (RIA). After warming to 37° C., the plasma samples were injected into two autologous rabbits. The rabbits were then bled at defined intervals. The blood was centrifuged for 5 minutes at 2500 rpm and then aliquots of the plasma were analyzed by RIA. Results: Plasma proteins derivatized with the NHS ester of the renin inhibitor did indeed maintain the inhibitor in a conformation which remained bioavailable and inhibitory after an extended period of circulation in the blood. […] Again, the amount of inhibitor detectable has been normalized for the effect of dilution of the plasma by the volume of blood in circulation. "ND" means this measurement was not determined.

Data set [2] concerns the target T1, renin (Homo sapiens, UniProt P00797).
T1 sequence (P00797 67-406): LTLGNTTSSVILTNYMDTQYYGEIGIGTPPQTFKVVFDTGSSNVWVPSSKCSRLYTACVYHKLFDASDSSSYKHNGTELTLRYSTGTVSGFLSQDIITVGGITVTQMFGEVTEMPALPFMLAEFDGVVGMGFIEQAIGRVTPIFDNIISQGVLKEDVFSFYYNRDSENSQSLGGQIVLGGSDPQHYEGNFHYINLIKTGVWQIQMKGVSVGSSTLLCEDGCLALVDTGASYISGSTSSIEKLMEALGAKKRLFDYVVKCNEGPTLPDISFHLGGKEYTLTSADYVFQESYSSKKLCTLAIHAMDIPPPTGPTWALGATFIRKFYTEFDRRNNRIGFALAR
The experiment in a line: renin inhibition IC50. Format: biochemical.

Turning to “Boc-Phe-His-ACHPA-IIe-6-AC-NHS [YS-004-69]”, the “Crude % Inhibition” value in the data set with renin [1] (10 min after injection) is given as 97.70%; with renin [1] (30 min after injection), 87.40%; with renin [1] (1 hour after injection), 85.90%; in the data set on renin [1] (4 hours after injection) it was 87.40%; with renin [1] (6 hours after injection), 88.20%; with renin [1] (8 hours after injection), 70.50%. Further, the “Crude % Inhibition” value with renin [1] (1 day after injection) was 75.10%; in the data set on renin [1] (2 days after injection), 68.10%; with renin [1] (3 days after injection), 75.80%; with renin [1] (6 days after injection), 55.30%; in the data set with renin [1] (10 days after injection) it was 41.20%. Also, the “Corrected % Inhibition” value in the data set on renin [1] (10 min after injection) was 100.00%; in the data set with renin [1] (30 min after injection), 89.46%; with renin [1] (1 hour after injection), 87.92%; in the data set with renin [1] (4 hours after injection), 99.69%; with renin [1] (6 hours after injection), 100.51%; with renin [1] (8 hours after injection) it was 72.16%. Moreover, the “Corrected % Inhibition” value is listed as 76.87% in the data set on renin [1] (1 day after injection); 69.70% with renin [1] (2 days after injection); 77.38% in the data set on renin [1] (3 days after injection); 56.60% with renin [1] (6 days after injection); 42.17% in the data set on renin [1] (10 days after injection).

For the compound `CC[C@H](C)[C@H](NC(=O)C[C@H](O)[C@H](CC1CCCCC1)NC(=O)[C@H](Cc1c[nH]cn1)NC(=O)[C@H](Cc1ccccc1)NC(=O)OC(C)(C)C)C(=O)NCCCCCC(=O)O` [YS-004-65, Boc-Phe-His-ACHPA-IIe-6-AC-OH], the IC50 on renin [2] is 50 nM. Moreover, the “Crude % Inhibition” value was 89.40% in the data set on renin [1] (10 min after injection); 20.60% with renin [1] (30 min after injection); -2.80% with renin [1] (1 hour after injection); -5.20% in the data set on renin [1] (4 hours after injection); -0.40% with renin [1] (6 hours after injection); -2.90% with renin [1] (8 hours after injection). Besides, the “Crude % Inhibition” value is -5.20% in the data set with renin [1] (1 day after injection), -3.20% with renin [1] (2 days after injection), 1.40% in the data set on renin [1] (3 days after injection) and -6.60% with renin [1] (10 days after injection). In addition, the “Corrected % Inhibition” value in the data set with renin [1] (10 min after injection) is given as 100.00%; in the data set on renin [1] (30 min after injection), 23.04%; in the data set with renin [1] (1 hour after injection) it was -3.13%; in the data set with renin [1] (4 hours after injection), -5.82%; with renin [1] (6 hours after injection), -0.45%; with renin [1] (8 hours after injection), -3.24%. Besides, the “Corrected % Inhibition” value in the data set with renin [1] (1 day after injection) is -5.82%; with renin [1] (2 days after injection), -3.58%; in the data set with renin [1] (3 days after injection) it was 1.57%; in the data set on renin [1] (6 days after injection) it was 0.00%; in the data set with renin [1] (10 days after injection), -7.38%. Besides, in the data set on renin [1] (rabbit, in vivo), the “level of renin inhibitor / inhibition in plasma over time” value is “not detectable after one hour”.

For the compound `CC[C@H](C)CNC(=O)C[C@H](O)[C@H](CC1CCCCC1)NC(=O)[C@H](Cc1c[nH]cn1)NC(=O)[C@H](Cc1ccccc1)NC(=O)OC(C)(C)C` [parent renin inhibitor, reference compound], at renin [2], the 50% inhibitory concentration (IC50) lay in the range of 4 to 19 nM.
